Measurements published in article PMC7811525, “Virtual screening of potentially endocrine-disrupting chemicals against nuclear receptors and its application to identify PPARγ-bound fatty acids” (Archives of Toxicology, 2020).
pKd: −log10 of the molar value. “Also recorded” adds a separate entry of the source.

Key:
RORγ = system: RORγ; parameters: method as in ToxCast database released in October 2015; conditions: active/inactive call; ref ToxCast database released in October 2015; cited from earlier work
[1] = target: T1, PPARγ ligand binding domain (204–477) (Homo sapiens, UniProt P37231); experiment: Surface plasmon resonance (SPR) analysis of fatty acid binding to immobilized PPARγ LBD; conditions: for Rmax: SPR steady-state fit, FUA: chip coupled with 12000RU; for binding to PPARγ in SPR (in words): compared with DHA and EPA; for pKd: steady-state fit, Biacore T200, chip about 6500 RU (FUA: chip coupled with 12000RU PPARγ LBD)
T1 construct: GST (N, cleaved yes); made in house; host or cells: E. coli BL21(DE3)
T1 sequence (P37231 204-477 isoform P37231-2): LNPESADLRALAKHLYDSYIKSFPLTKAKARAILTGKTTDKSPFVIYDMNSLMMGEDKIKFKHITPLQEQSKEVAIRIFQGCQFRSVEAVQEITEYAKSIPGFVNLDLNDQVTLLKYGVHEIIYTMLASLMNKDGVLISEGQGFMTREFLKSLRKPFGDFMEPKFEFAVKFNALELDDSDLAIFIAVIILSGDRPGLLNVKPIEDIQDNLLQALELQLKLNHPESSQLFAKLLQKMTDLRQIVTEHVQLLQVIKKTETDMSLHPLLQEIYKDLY
Method: The protein was firstly purified using a glutathione Sephararose 4B column, followed by PreScission protease cleavage to remove the GST-tag. […] The finally collected protein in 20 mM Tirs, pH8.0, 150 mM NaCl and 2 mM DTT was concentrated to 20 mg/ml. The purity was checked by SDS-PAGE and protein was stored at − 80 °C for use.
PPARγ (0.05 mg/ml) were coupled onto CM5 sensor chips according to amine coupling procedure from the manufacturer’s manual. […] A reference channel was generated at same conditions without protein injection and used as a blank control to correct the instrument or buffer artifacts. Fatty acids were dissolved in DMSO and diluted with concentration ranging from 0.78 to 50 μM, and injected at a flowrate of 40 μL/min. Each sensorgram consists of an association phase (120 s), indicating the binding of the injected compound to the protein, followed by a dissociation phase (300 s) during which the running buffer (10 mM phosphate buffer, 150 mM NaCl, 5% DMSO, 0.05% Tween 20, pH 7.4) is passed over and the bound compounds were eluted from the chip surface. The Kd was calculated by steady-state binding fitting method in Biacore T200 evaluate the software.

GR = system: GR; parameters: method as in ToxCast database released in October 2015; conditions: active/inactive call; ref ToxCast database released in October 2015; cited from earlier work
PR = system: PR; parameters: method as in ToxCast database released in October 2015; conditions: active/inactive call; ref ToxCast database released in October 2015; cited from earlier work
AR = system: AR; parameters: method as in ToxCast database released in October 2015; conditions: active/inactive call; ref ToxCast database released in October 2015; cited from earlier work
PPARα = system: PPARα; parameters: method as in ToxCast database released in October 2015; conditions: active/inactive call; ref ToxCast database released in October 2015; cited from earlier work

| Molecule | Rmax [1] | binding to PPARγ in SPR (in words) [1] | pKd [1] | further results |
| --- | --- | --- | --- | --- |
| CC(C)c1cccc(C(C)C)c1N1C(=O)c2ccc(O)cc2C1=O [5HPP-33] | – | – | – | ToxCast activity against RORγ (RORγ): active |
| CC/C=C\C/C=C\C/C=C\C/C=C\C/C=C\C/C=C\CCC(=O)O [DHA, Docosahexaenoic acid, reference compound] | 281 RU | – | – | – |
| CC/C=C\C/C=C\C/C=C\C/C=C\C/C=C\CCCCCC(=O)O [DPA, docosapentaenoic acid] | 2167 RU | weaker binding than DHA; also recorded: confirmed to bind to PPARγ, weaker than DHA and EPA | 2.40 | – |
| CC/C=C\C/C=C\C/C=C\C/C=C\C/C=C\CCCC(=O)O [EPA, Eicosapentaenoic acid, reference compound] | 136 RU | – | 3.20 | – |
| CC(C)[C@H](C(=O)O[C@H](C#N)c1cccc(Oc2ccccc2)c1)c1ccc(Cl)cc1 [Esfenvalerate] | – | – | – | ToxCast activity against GR (GR): active |
| CCCCCc1cc(C)c(CCCCCCCCC(=O)O)o1 [FNA, 10,13-epoxy-11-methyloctadeca-10,12-dienoic acid] | 38.55 RU | stronger binding than DHA and EPA | 3.87 | – |
| CCCc1cc(C)c(CCCCCCCCCCC(=O)O)o1 [FUA, 11-(3-methyl-5-propylfuran-2-yl)undecanoic acid] | 459.3 RU | stronger binding than DHA and EPA | 3.60 | – |
| CC1(C)NC(=O)N(c2ccc([N+](=O)[O-])c(C(F)(F)F)c2)C1=O [Nilutamide] | – | – | – | ToxCast activity against PR (PR): active |
| O=C(O)CN(CC(=O)O)CC(=O)O [Nitrilotriacetic acid] | – | – | – | ToxCast activity against AR (AR): active |
| CCCCCCC1CC1CCCCCCCCCC(=O)O (centres unmarked) [PTA, Phytomonic acid] | 33.28 RU | stronger binding than DHA and EPA | 3.99 | – |
| CCCCCC[C@@H](O)C/C=C\CCCCCCCC(=O)O [ROA, ricinoleic acid] | > 10,000.00 RU | weaker binding than DHA | < 2.00 | – |
| CN1CCc2cccc3c2[C@H]1Cc1ccc(O)c(O)c1-3 [apomorphine, reference compound] | – | – | – | ToxCast activity against PPARα (PPARα): active |
| CCOC(=O)C(C)OC(=O)c1cc(Oc2ccc(C(F)(F)F)cc2Cl)ccc1[N+](=O)[O-] (centres unmarked) [lactofen] | – | – | – | ToxCast activity against AR (AR): active |
| O=c1c(O)c(-c2ccc(O)cc2O)oc2cc(O)cc(O)c12 [morin] | – | – | – | ToxCast activity against PPARα (PPARα): active |
| Cl.N=C1C=CC(=C(c2ccc(N)cc2)c2ccc(N)cc2)C=C1 [parafuchsin] | – | – | – | ToxCast activity against RORγ (RORγ): active |
| Oc1ccc(/C=C/c2cc(O)cc(O)c2)cc1 [reservertol] | – | – | – | ToxCast activity against RORγ (RORγ): active |
| O=C(c1ccc(O)cc1O)c1ccc(O)cc1O [tetrahydroxybenzophenone] | – | – | – | ToxCast activity against AR (AR): active |
| CC1(C)CCC(=Cc2ccc(Cl)cc2)C1(O)Cn1cncn1 (centres unmarked) [triconazole] | – | – | – | ToxCast activity against AR (AR): active |
| eicosatrienoic acid [ESA] | > 10,000.00 RU | weaker binding than DHA | < 2.00 | – |
